target: Plasminogen activator inhibitor 1 (Homo sapiens, UniProt P05121); assay: Inhibitory concentration required against Plasminogen activator inhibitor 1.
Sequence (P05121 whole entry): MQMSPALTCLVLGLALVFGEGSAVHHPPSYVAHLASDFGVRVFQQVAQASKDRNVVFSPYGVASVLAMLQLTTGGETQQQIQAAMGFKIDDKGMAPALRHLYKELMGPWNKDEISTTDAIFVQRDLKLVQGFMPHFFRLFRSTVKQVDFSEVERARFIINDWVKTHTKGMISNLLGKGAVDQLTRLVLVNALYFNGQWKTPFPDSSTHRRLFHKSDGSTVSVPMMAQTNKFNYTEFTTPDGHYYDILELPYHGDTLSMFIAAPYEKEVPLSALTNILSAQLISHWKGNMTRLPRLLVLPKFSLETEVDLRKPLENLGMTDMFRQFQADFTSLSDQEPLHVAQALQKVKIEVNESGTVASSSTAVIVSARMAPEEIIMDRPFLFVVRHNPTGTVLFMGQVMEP

Row | SMILES | IC50 [µM]
1 | COc1cccc(-c2[nH]c(=O)c3ccccc3c2O)c1 | 9.8
2 | Oc1nc(-c2ccc(Cl)cc2)c(O)c2ccccc12 | 23.6
3 | O=c1[nH]/c(=C\c2nccs2)c(=O)[nH]/c1=C\c1ccc(OCCCc2cccnc2)cc1 | 0.6
4 | O=C(Nc1cc(C(F)(F)F)cc(C(F)(F)F)c1)c1nc(O)c2ccccc2c1O | 13.7
5 | O=C1N/C(=C\c2ccc(OCCCc3cccnc3)cc2)C(=O)c2ccccc21 | 18
6 | O=c1[nH]c(-c2ccc(F)cc2)c(O)c2ccccc12 | 39.5
7 | O=c1[nH]/c(=C\c2ccc(OCCCc3cccnc3)cn2)c(=O)[nH]/c1=C\c1ccccc1 | > 50
8 | Cn1c(=O)/c(=C/c2ccc(OCCCc3cccnc3)cc2)[nH]c(=O)/c1=C/c1ccccc1 | 12
9 | O=C(Nc1ccc(Cl)cc1)c1nc(O)c2ccccc2c1O | 24

The remaining compounds from weak to strong by IC50, led by results:

Row | IC50 [µM] | SMILES
10 | 50 | Oc1nc(-c2ccccc2)c(O)c2ccccc12
11 | 14 | O=C(Nc1ccc(Cl)c(Cl)c1)c1nc(O)c2ccccc2c1O
12 | 8.6 | O=C(Nc1ccc(/C=C2\NC(=O)c3ccccc3C2=O)cc1)c1ccccc1
13 | 4 | O=C(Nc1ccc(/C=C2\NC(=O)c3ccccc3C2=O)cc1)c1cccs1
14 | 1.9 | O=C(Nc1ccc(/C=C2\NC(=O)c3ccccc3C2=O)cc1)c1ccco1
15 | 1 | O=C(Nc1ccc(Oc2ccc(OC(F)(F)F)cc2)cc1)c1[nH]c(=O)c2ccccc2c1O
16 | 1 | O=c1[nH]/c(=C\c2ccc(OCCCc3cccnc3)cc2)c(=O)[nH]/c1=C\c1ccccc1
17 | 0.3 | O=c1[nH]/c(=C\c2ccccn2)c(=O)[nH]/c1=C\c1ccc(OCCCc2cccnc2)cc1
